Reference: patent US20080026996A1, “Selective Vpac2 Receptor Reptide Agonists” (ELI LILLY AND COMPANY, priority 2004, published 2008)
Read-outs that look alike come from different tables or passages of the source. Where no end group is shown, it is not given here. [ ]: non-standard residue; d: D form. The star is where a group is joined. Met(O) = CS(=O)CC[C@H](N)C(=O)O; Hexanoyl = CCCCCC(=O)*; Aib = CC(C)(N)C(=O)O

Columns and labels:
[1] = target: T1, human VPAC2 (Homo sapiens, UniProt P41587); experiment: Alpha screen cAMP in vitro potency, human VPAC2 receptor; assay type: cell-based; conditions: cAMP generation; single result from two analyses performed in a single run; read-out: Human VPAC2 Receptor: Alpha Screen EC50
T1 construct: expressed in transfected cells
T1 sequence (P41587 24-438): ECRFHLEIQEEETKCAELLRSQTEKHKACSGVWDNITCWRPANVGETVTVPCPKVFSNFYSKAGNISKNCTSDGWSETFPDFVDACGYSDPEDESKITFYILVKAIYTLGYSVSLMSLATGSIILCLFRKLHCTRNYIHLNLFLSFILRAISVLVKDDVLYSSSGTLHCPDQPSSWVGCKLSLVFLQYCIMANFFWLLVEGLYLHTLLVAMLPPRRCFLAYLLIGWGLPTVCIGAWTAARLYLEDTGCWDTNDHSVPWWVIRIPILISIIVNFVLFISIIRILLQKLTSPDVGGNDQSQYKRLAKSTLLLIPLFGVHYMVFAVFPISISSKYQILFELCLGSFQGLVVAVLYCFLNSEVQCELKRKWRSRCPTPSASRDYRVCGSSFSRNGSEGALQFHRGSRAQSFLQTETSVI
Procedure: Alpha screen: Cells are washed in the culture flask once with PBS. Then, the cells are rinsed with enzyme free dissociation buffer. The dissociated cells are removed. The cells are then spun down and washed in stimulation buffer. For each data point, 50,000 cells suspended in stimulation buffer are used. To this buffer, Alpha screen acceptor beads are added along with the stimuli. This mixture is incubated for 60 minutes. Lysis buffer and Alpha screen donor beads are added and are incubated for 60 to 120 minutes. The Alpha screen signal (indicative of intracellular cAMP levels) is read in a suitable instrument (e.g. AlphaQuest from Perkin-Elmer). Steps including Alpha screen donor and acceptor beads are performed in reduced light.

[2] = target: T1, human VPAC2; experiment: Filter binding assay, membranes of stable VPAC2 cell line, 125I-labeled VIP tracer (Table 2)
Procedure: (§1) For this assay, the solutions and equipment include:
(§2) Presoak solution: 0.5% Polyethyleneamine in Aqua dest.
(§3) Buffer for flushing filter plates: 25 mM HEPES pH 7.4
(§4) Blocking buffer: 25 mM HEPES pH 7.4; 0.2% protease free BSA
(§5) Assay buffer: 25 mM HEPES pH 7.4; 0.5% protease free BSA
(§6) Dilution and assay plate: PS-Microplate, U form
(§7) Filtration Plate Multiscreen FB Opaque Plate; […] Type B Glasfiber filter
(§8) In order to prepare the filter plates, aspirate the presoak solution by vacuum filtration. Flush the plates twice with 200 μL flush buffer. Add 200 μL blocking buffer to the filter plate. The filter plate is then incubated […] for 1 hour at room temperature.
(§9) Fill the assay plate with 25 μL assay buffer, 25 μL membranes (2.5 μg) suspended in assay buffer, 25 μL compound (agonist) in assay buffer, and 25 μL tracer (about 40000 cpm) in assay buffer. Incubate the filled plate for 1 hour with shaking.
(§10) Conduct the transfer from assay plate to filter plate. Aspirate the blocking buffer by vacuum filtration and wash two times with flush buffer. Transfer 90 μL from the assay plate to the filter plate. Aspirate the 90 μL transferred from assay plate and wash three times with 200 μL flush buffer. Remove the plastic support. Dry for 1 hour at 60° C. Add 30 μL Microscint. Perform the count.

[3] = target: T2, human VPAC1 (Homo sapiens, UniProt P32241); experiment: Filter binding assay, membranes of cells transiently transfected with human VPAC1, 125I-labeled VIP tracer (Table 2); set-up: expressed in transfected cells
T2 sequence (P32241 31-457): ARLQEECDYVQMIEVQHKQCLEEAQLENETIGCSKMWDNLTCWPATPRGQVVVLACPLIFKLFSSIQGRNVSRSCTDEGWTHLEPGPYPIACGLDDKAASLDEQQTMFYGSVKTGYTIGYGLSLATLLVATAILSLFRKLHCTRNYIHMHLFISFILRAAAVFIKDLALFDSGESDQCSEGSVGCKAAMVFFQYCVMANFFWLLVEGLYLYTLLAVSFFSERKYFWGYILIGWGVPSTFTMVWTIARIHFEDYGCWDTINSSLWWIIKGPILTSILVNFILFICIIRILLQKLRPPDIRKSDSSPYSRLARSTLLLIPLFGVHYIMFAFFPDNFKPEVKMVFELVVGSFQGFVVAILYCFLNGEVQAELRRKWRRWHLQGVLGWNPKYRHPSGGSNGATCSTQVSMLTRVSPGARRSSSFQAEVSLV
Procedure: as §1, §2, §3, §4, §5, §6, §7, §8, §9, §10

[4] = target: T3, human PAC1 (Homo sapiens, UniProt P41586); experiment: Filter binding assay, membranes of cells transiently transfected with human PAC1, 125I-labeled PACAP-27 tracer (Table 2); set-up: expressed in transfected cells
T3 sequence (P41586 21-468): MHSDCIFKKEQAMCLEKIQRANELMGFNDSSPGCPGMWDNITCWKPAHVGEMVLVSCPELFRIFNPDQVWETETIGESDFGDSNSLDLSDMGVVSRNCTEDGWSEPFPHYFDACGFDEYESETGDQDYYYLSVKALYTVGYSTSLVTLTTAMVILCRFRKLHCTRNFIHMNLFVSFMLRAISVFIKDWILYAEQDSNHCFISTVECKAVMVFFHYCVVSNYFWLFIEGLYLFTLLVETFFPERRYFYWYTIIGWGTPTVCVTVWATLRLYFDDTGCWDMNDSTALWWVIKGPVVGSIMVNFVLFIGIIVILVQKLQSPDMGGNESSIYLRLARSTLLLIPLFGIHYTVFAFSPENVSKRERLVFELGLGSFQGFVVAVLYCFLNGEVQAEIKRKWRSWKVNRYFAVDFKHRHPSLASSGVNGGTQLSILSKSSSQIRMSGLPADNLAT
Procedure: as §1, §2, §3, §4, §5, §6, §7, §8, §9, §10

[5] = target: T4, human VPAC2 receptor (human, UniProt P41587 24-438); experiment: cell-based or functional assay
T4 sequence (looked up): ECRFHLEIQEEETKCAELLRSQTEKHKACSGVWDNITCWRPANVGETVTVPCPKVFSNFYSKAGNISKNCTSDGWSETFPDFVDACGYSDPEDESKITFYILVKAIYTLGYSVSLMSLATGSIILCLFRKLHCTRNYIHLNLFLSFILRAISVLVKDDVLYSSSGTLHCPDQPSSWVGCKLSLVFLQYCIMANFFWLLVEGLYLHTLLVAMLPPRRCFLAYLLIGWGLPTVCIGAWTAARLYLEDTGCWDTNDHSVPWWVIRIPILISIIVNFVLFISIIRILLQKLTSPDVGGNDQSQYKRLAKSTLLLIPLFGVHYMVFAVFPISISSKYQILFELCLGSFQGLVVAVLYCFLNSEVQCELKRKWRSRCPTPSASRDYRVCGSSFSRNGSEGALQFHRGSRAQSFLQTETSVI

[6] = read-out: Human VPAC2 Receptor Binding
[7] = read-out: Human VPAC1 Receptor Binding
[8] = read-out: Human PAC1 Receptor Binding

Hexanoyl-HSDAVFTDNYTRLRKQVAAKKYLQSWKNKRYGGPSSGAPPPS [Agonist P110]
EC50 [1]: 0.13 nM
IC50 [2, 6]: 0.1 nM
IC50 [3, 7]: 425 nM
IC50 [4, 8]: 321 nM

HSDAVFTDNYTRLRKQVAAKKYLQSIKKGGPSSGAPPPS [Agonist P85]
IC50 [2, 6]: 1.7 nM
IC50 [3, 7]: 226 nM

Hexanoyl-HSEAVFTDNYTRLRKQVAAKKYLQSIKNKRYGGPSSGAPPPS [Agonist P224]
EC50 [1]: 0.14 nM
IC50 [2, 6]: 0.35 nM
IC50 [3, 7]: 208 nM
IC50 [4, 8]: 210 nM

Hexanoyl-HSDAVFTDNYTRLRKQVAAKKYLQVIKNKRYGGPSSGAPPPS [Agonist P116]
EC50 [1]: 0.12 nM
IC50 [2, 6]: 0.74 nM
IC50 [3, 7]: 369 nM
IC50 [4, 8]: 145 nM

H-HSDGVFTDNYTRLRKQVAAKKYLQSIKNKRYGGPSSGAPPPS [Agonist P102]
IC50 [2]: 15.4 nM
IC50 [3]: 184 nM
IC50 [4]: 55 nM

CCCCCC(=O)N[C@@H](Cc1c[nH]cn1)C(=O)N[C@@H](CO)C(=O)N[C@@H](CC(=O)O)C(=O)N[C@@H](C)C(=O)N[C@H](C(=O)N[C@@H](Cc1ccccc1)C(=O)N[C@H](C(=O)N[C@@H](CC(=O)O)C(=O)N[C@@H](CC(N)=O)C(=O)N[C@@H](Cc1ccc(O)cc1)C(=O)N[C@H](C(=O)N[C@@H](CCCNC(=N)N)C(=O)N[C@@H](CC(C)C)C(=O)N[C@@H](CCCNC(=N)N)C(=O)N[C@@H](CCCCN)C(=O)N[C@@H](CCC(N)=O)C(=O)NC(C)(C)C(=O)N[C@@H](C)C(=O)N[C@@H](C)C(=O)N[C@@H](CCCCN)C(=O)N[C@@H](CCCCN)C(=O)N[C@@H](Cc1ccc(O)cc1)C(=O)N[C@@H](CC(C)C)C(=O)N[C@@H](CCC(N)=O)C(=O)N[C@@H](CO)C(=O)N[C@H](C(=O)N[C@@H](CCCCN)C(=O)N[C@@H](CC(N)=O)C(=O)N[C@@H](CCCCN)C(=O)N[C@@H](CCCNC(=N)N)C(=O)N[C@@H](Cc1ccc(O)cc1)C(=O)NCC(=O)NCC(=O)N1CCC[C@H]1C(=O)N[C@@H](CO)C(=O)N[C@@H](CO)C(=O)NCC(=O)N[C@@H](C)C(=O)N1CCC[C@H]1C(=O)N1CCC[C@H]1C(=O)N1CCC[C@H]1C(=O)N[C@@H](CO)C(=O)O)[C@@H](C)CC)[C@@H](C)O)[C@@H](C)O)C(C)C [Agonist P189]
IC50 [2, 6]: 0.2 nM
IC50 [3, 7]: 6.87 nM
IC50 [4, 8]: 303 nM

HSDAVFTDNYTREKEKVAAKKYLQSIKNKRYGGPSSGAPPPS [Agonist P87]
EC50 [1]: > 10000 nM
IC50 [2, 6]: 1110 nM
IC50 [3, 7]: 636 nM

[dH]SDAVFTDNYTRLRKQVAAKKYLQSIKNKRYGGPSSGAPPPS [Agonist P84]
IC50 [2, 6]: 20 nM
IC50 [3, 7]: 469 nM

HSDAVFTDNYTRLRRQVAAKKYLQSIKNKRYGGPSSGAPPPS [Agonist P72]
IC50 [2, 6]: 1.52 nM
IC50 [3, 7]: 159 nM

Hexanoyl-HSDAVFTRNYTRLRKQVAAKKYLQSIKNKRYGGPSSGAPPPS [Agonist P162]
IC50 [2, 6]: 3.72 nM
IC50 [3, 7]: 5.14 nM
IC50 [4, 8]: 186 nM

H-H[dA]DAVFTDNYTRLRKQVAAKKYLQSIKNKRYGGPSSGAPPPS [Agonist P47]
IC50 [2, 6]: 0.84 nM
IC50 [3, 7]: 124 nM

HSDAVFTDNYTRLRRQVAARRYLQSIRNRRYGGPSSGAPPPS [Agonist P71]
IC50 [2, 6]: 1.52 nM
IC50 [3, 7]: 73.1 nM

Hexanoyl-HSDAVFTDNYTRLRKQVAAKKLLQSIKNKRYGGPSSGAPPPS [Agonist P132]
IC50 [2, 6]: 1.51 nM
IC50 [3, 7]: 617 nM
IC50 [4, 8]: 1020 nM

IHSDAVFTDNYTRLRKQVAAKKYLQSIKNKRYGGPSSGAPPPS [Agonist P105]
IC50 [2]: 5.41 nM
IC50 [3]: 263 nM
IC50 [4]: 127 nM

[Met(O)]HSDAVFTDNYTRLRKQVAAKKYLQSIKNKRYGGPSSGAPPPS [Agonist P199]
IC50 [2]: 8.26 nM
IC50 [3]: 429 nM
IC50 [4]: 244 nM

Hexanoyl-HHSDAVFTDNYTRLLAKLALQKYLQSIKNKRYGGPSSGAPPPS [Agonist P191]
IC50 [2, 6]: 60.6 nM
IC50 [3, 7]: 1280 nM
IC50 [4, 8]: > 25000 nM

Hexanoyl-HSDAVFTLNYTRLRKQVAAKKYLQSIKNKRYGGPSSGAPPPS [Agonist P161]
IC50 [2, 6]: 6.61 nM
IC50 [3, 7]: 119 nM
IC50 [4, 8]: 4260 nM

Hexanoyl-HSDAVFTDNYTRLRKQVAAKKVLQSIKNKRYGGPSSGAPPPS [Agonist P134]
IC50 [2, 6]: 2.13 nM
IC50 [3, 7]: 833 nM
IC50 [4, 8]: 479 nM

Hexanoyl-HSDAVFTDNYTRLRKQVAAKKTLQSIKNKRYGGPSSGAPPPS [Agonist P131]
IC50 [2, 6]: 5.67 nM
IC50 [3, 7]: 1370 nM
IC50 [4, 8]: 632 nM

HSDAVFTDNYTRLRKQVAAKKYLQSIKRGGPSSGAPPPS [Agonist P82]
IC50 [2, 6]: 1.9 nM
IC50 [3, 7]: 195 nM

Hexanoyl-HSDAVFTDNYTRLRKQVAAQKYLNQLKKGGPSSGAPPPS [P144]
EC50 cAMP, Alpha Screen [5]: 0.32 nM

HSDAVFTDNYTRLRKQVAAKKYLQSIKNKRGGT [P7]
EC50 cAMP, DiscoveRx [5]: 2.78 nM

HSDAVFTDNYTRLRKQVAAKKYLQSIKNKKGGT [P8]
EC50 cAMP, DiscoveRx [5]: 1.61 nM

HSDAVWTDNYTRLRKQVAAKKYLQSIKNKRYGGPSSGAPPPS [P67]
EC50 cAMP, Alpha Screen [5]: 94.1 nM

[dH]SDAVFTDNYTRLRKQVAAKKYLQSIKNKRYGGPSSGAPPPS [P84]
EC50 cAMP, Alpha Screen [5]: 185 nM

HSDAVFTDNYTRLRKQVAAKKYLQSIKNKKGGPSSGAPPPS [P9]
EC50 cAMP, DiscoveRx [5]: 2.41 nM

Hexanoyl-HSDAVFTDNYTRLRKQVAAKKYLQ[Aib]IKNKRYGGPSSGAPPPS (ends and bridges not checked) [P187]
EC50 cAMP, Alpha Screen [5]: 0.4 nM

Hexanoyl-HSDAVFTDNYTRLRKQVAAKKYLQSIKNKRGGPSSGAPPPS [P123]
EC50 cAMP, Alpha Screen [5]: 0.12 nM

Hexanoyl-HSDAVFTDNYTRLRKQVAAKKYLQSIKNSRGGPSSGAPPPS [P122]
EC50 cAMP, Alpha Screen [5]: 0.14 nM

Hexanoyl-H[Aib]DAVFTDNYTRLRKQVAAKKYLQSIKNKRYGGPSSGAPPPS (ends and bridges not checked) [P166]
EC50 cAMP, Alpha Screen [5]: 0.15 nM
